{"source": "paper PMC3230703", "about": "(Journal of molecular biology, 2011)", "target": "GBSSrtC1 (SAG2603 V/R sortase C1) (Streptococcus agalactiae, UniProt Q8E0S7)", "assay": "NMR", "assay_type": "binding", "conditions": "irreversible cysteine protease inhibitor; in solution", "data": [{"molecule": "CC(C)C[C@H](NC(=O)[C@H]1O[C@@H]1C(=O)O)C(=O)NCCCCN=C(N)N", "note": "[E64]", "values": [{"measurement": "NMR (results not shown)", "result": "inhibitors MTSET and E64 in solution was confirmed by mass spectrometry and NMR, respectively"}]}]}
